The values that follow come from article PMC10223877, “Impacts of PEGylation and Glycosylation on the Biological Properties of Host Defense Peptide IDR1018” (Pharmaceutics, 2023).

In brackets after ≈: the same amount, converted by molar mass. Ends that are not written are not given here. Peptide text beside a SMILES is read from it. * marks the point of attachment. X1 = CC(=O)N[C@H]1C(*)O[C@H](CO)[C@@H](O)[C@@H]1O; X2 = O=C(CCOCCOCCOCCOCCOCCOCCO)*

Series [1] relates to A. baumannii 5015. In words: MIC, liquid broth inhibition assay. The format is cell-based. The following applies: planktonic A. baumannii 5015; MHB, ~1 × 10^6 CFU mL^−1, ~18 h, OD600; modal values of three independent experiments. The protocol:
(§1) The MIC was conducted using the liquid broth inhibition assay as previously described. MHB was used as a medium for bacterial growth, and bacteria (either MRSA SAP0017, P. aeruginosa PA14, E. coli ATTC489 or A. baumannii 5015) were suspended at ∼1 × 10^6 CFU mL^−1. The peptide conjugates were incubated with the bacterial cultures at various concentrations for ~18 h prior determination of bacterial growth optical density at 600 nm (OD600). The MIC was defined as the lowest concentration that led to no growth in the wells. All values are modal values of three independent experiments.

In series [2] the test system is P. aeruginosa PA14. The experiment in a line: MIC, liquid broth inhibition assay. The class given is cell-based. Particulars: planktonic P. aeruginosa PA14; MHB, ~1 × 10^6 CFU mL^−1, ~18 h, OD600; modal values of three independent experiments. The procedure: as §1
The test system of series [3] is E. coli ATTC489. The experiment in a line: MIC, liquid broth inhibition assay. The class given is cell-based. The following applies: planktonic E. coli ATTC489; MHB, ~1 × 10^6 CFU mL^−1, ~18 h, OD600; modal values of three independent experiments. The protocol:
as §1

Series [4] concerns S. aureus MRSA0017. The experiment in a line: MIC, liquid broth inhibition assay. The class given is cell-based. The following applies: planktonic S. aureus MRSA0017; MHB, ~1 × 10^6 CFU mL^−1, ~18 h, OD600; modal values of three independent experiments. The procedure: as §1
In series [5] the test system is P. aeruginosa PA14. In words: Biofilm eradication assay (MBEC), preformed biofilms. The class given is cell-based. Particulars: BM2 glucose, viable biofilm cell count, three independent experiments.
Text: (§2) A bacterial suspension of 1 × 10^7 CFU mL^−1 was used to establish biofilms prior to treatment with the peptides. Appropriate nutrient media for optimal biofilm formation were used, including TSB supplemented with 1% glucose for MRSA SAP0017, BM2 glucose for P. aeruginosa PA14, and LB media supplemented with 1% glucose for E. coli ATTC489 and A. baumannii 5015. In the crystal violet-based assay, untreated bacterial culture and sterile media were used as positive and negative controls, where the % of biofilm biomass was considered 100 and 0%, respectively. The % of biomass in the treated samples was determined relative to the positive and negative controls. A biofilm eradication assay [17] was also performed, for which the residual viable biofilm cell count (CFU mL^−1) was determined. Experiments were conducted in triplicate, in three independent experiments, and average values were presented with ± standard deviations.
Series [6] in a line: Aggregation with PBMCs in tissue culture, microscopy. The format is physicochemical, human. Particulars: 32 μg mL^−1, PBMCs in RPMI, 4 h, 37 °C, 5% CO2, microscopy; triplicate in three independent experiments. The procedure:
Furthermore, isolated peripheral blood mononuclear cells (PBMCs) seeded in 96-well flat-bottom tissue culture plates (Corning Inc., Corning, NY, USA) at a concentration of 2 × 10^6 in RMPI media were treated with the two conjugates at a final concentration of 32 μg mL^−1, incubated for 4 h at 37 °C in 5% CO2, and visualized on a Nikon Eclipse TS100 microscope. Experiments were performed in triplicate in three independent experiments.

Series [7] deals with E. coli ATTC489. In words: Biofilm eradication assay (MBEC), preformed biofilms. The format is cell-based. Particulars: LB + 1% glucose, viable biofilm cell count, three independent experiments.
Text: as §2
Series [8] concerns S. aureus MRSA0017. The experiment in a line: Biofilm biomass, crystal violet staining assay. The class given is cell-based. The following applies: at 64 µg mL^−1, relative to untreated samples.
Text: as §2
Series [9] has as its system S. aureus MRSA0017. The experiment in a line: Biofilm eradication assay (MBEC), preformed biofilms. The format is cell-based. Particulars: TSB + 1% glucose, viable biofilm cell count, three independent experiments.
Text: as §2
Series [10] is described as follows: Aggregation assay (turbidity) in sodium citrate or phosphate. Particulars: sodium citrate and sodium phosphate, 0.1−1000 mM; OD600 relative to sterile water. The class given is physicochemical. The procedure: Solutions of IDR1018 peptide and the conjugates were tested for aggregation in saline (0.9% NaCl), 5% dextrose, and 10% RPMI tissue culture medium at 1 mg mL^−1. The solutions were placed in 96 well plates and sterile water was used as a negative control. The turbidity was determined for each sample as described in earlier reports. Similarly, the conjugates were screened for aggregation in the presence of sodium salts of polyatomic anions (citrate or phosphate) at various strengths (0.1−1000 mM). The % of aggregates was assessed relative to the OD600 of sterile water.

A further series relates to human PBMCs. In words: Immunomodulatory assay, chemokine and cytokine expression overall. The format is cell-based.
The test system of the next series is IL-1RA. In words: Immunomodulatory assay, ELISA of PBMC supernatant. The class given is cell-based, human. Particulars: PBMCs. A general note: ELISA stands for enzyme-linked immunosorbent assay.
In another series the test system is IL-1β. The experiment in a line: Immunomodulatory assay, ELISA of PBMC supernatant. The class given is cell-based, human. The following applies: PBMCs, peptide 8 μg mL^−1 co-treated with 20 ng mL^−1 P. aeruginosa LPS, 24 h.
For a further series, the system named is MCP-1. In words: Immunomodulatory assay, ELISA of PBMC supernatant. The class given is cell-based, human. The following applies: PBMCs, peptide 8 μg mL^−1 co-treated with 20 ng mL^−1 P. aeruginosa LPS, 24 h.
The subject of series [11] is MRSA SAP0017, P. aeruginosa PA14, E. coli ATTC489, A. baumannii 5015. The experiment in a line: MIC, summary over the strains tested. The class given is cell-based. The following applies: range over the four strains of Table 2. The procedure: as §1
In a further series the test system is IL-10. In words: Immunomodulatory assay, ELISA of PBMC supernatant. The format is cell-based, human. The following applies: PBMCs, peptide 8 μg mL^−1 co-treated with 20 ng mL^−1 P. aeruginosa LPS, 24 h.
Series [12] relates to A. baumannii 5015. The experiment in a line: Biofilm eradication assay (MBEC), preformed biofilms. The format is cell-based. The following applies: preformed A. baumannii 5015 biofilm, LB + 1% glucose; viable biofilm cell count; three independent experiments.
Text: as §2
For series [13] the following is noted: at 128 µg mL^−1; LDH release, 24 h, 37 °C, RPMI + 10% FBS; 1% Triton X-100 = 100%. (LDH leaks from cells whose membrane has failed.)
Experimental: The cytotoxicity of the conjugates was assessed in vitro against PBMCs as described earlier using the lactate dehydrogenase (LDH)-based assay [35]. Blood samples were collected from healthy donors with ethics approval and PBMCs were isolated following our previously reported protocol [35]. The cells were resuspended in RPMI medium supplemented with 10% FBS and seeded in tissue culture-treated plates at a final density of 1 × 10^5 cells well^−1. Subsequently, the cells were treated with the conjugates or IDR1018 and incubated for 24 h at 37 °C in 5% CO2, to determine the LDH release. Triton X-100 (1% final concentration) was used as a toxic (positive) control.

Experimental for IL-10: (§3) To evaluate the capacity of the conjugates to modulate the immune system, suspended PBMCs (a final density of 1 × 10^5 cells well^−1) were treated with the conjugates at 8 μg mL^−1 in the presence or absence of 20 ng mL^−1 P. aeruginosa LPS, incubated for 24 h, centrifuged, and then the supernatants were collected to quantifying the levels of monocyte chemoattractant protein 1 (MCP-1), the tumor necrosis factor-alpha (TNFα), and interleukins (IL) IL-1β, IL-10, and the anti-inflammatory IL-1 receptor antagonist (IL-1RA) using specific ELISA assays (ELISA kits, eBioscience, Carlsbad, CA, USA). All experiments were conducted in triplicate in three independent experiments and average values were presented.
Experimental for IL-1RA: as §3
Experimental for IL-1β: as §3
Experimental for MCP-1: as §3
Experimental for human PBMCs: as §3

One may read the MIC as the smallest concentration in the dilution series that meets the test's criterion for growth inhibition. Low values mean greater potency, high ones weaker potency. As for `CC[C@H](C)[C@H](NC(=O)[C@H](CCCNC(=N)N)NC(=O)[C@@H](NC(=O)[C@H](C)NC(=O)[C@@H](NC(=O)[C@@H](NC(=O)[C@H](CC(C)C)NC(=O)[C@H](CCCNC(=N)N)NC(=O)[C@@H](NC(=O)[C@@H](N)[C@@H](C)OC1O[C@H](CO)[C@@H](O)[C@H](O)[C@H]1NC(C)=O)C(C)C)[C@@H](C)CC)C(C)C)C(C)C)C(=O)N[C@@H](Cc1c[nH]c2ccccc12)C(=O)N[C@@H](CCCNC(=N)N)C(=O)N[C@@H](CCCNC(=N)N)C(N)=O` (stereo partly drawn) [Glc-IDR1018] (H-T(X1)VRLIVAVRIWRR-NH2), the MIC against A. baumannii 5015 [1] was found to be 64 µg/mL (≈ 34.8 µM); against P. aeruginosa PA14 [2], 128 µg/mL (≈ 69.6 µM); against E. coli ATTC489 [3], 64 µg/mL (≈ 34.8 µM); in the series with S. aureus MRSA0017 [4] it was 64 µg/mL (≈ 34.8 µM). The “MBEC (minimal biofilm eradication concentration)” value (shortened to “MBEC”) in the series on P. aeruginosa PA14 [5] is 256 µg/mL; with E. coli ATTC489 [7], 128 µg/mL; with S. aureus MRSA0017 [9], 64 µg/mL; in the series on A. baumannii 5015 [12] it was 256 µg/mL. For the same compound, the “aggregation when incubated with PBMCs in tissue culture” value in series [6] is “neither peptide conjugate, PEG6-IDR1018, and Glc-IDR1018 showed any obvious sign of aggregation”. Moreover, the biomass reduction in the series with S. aureus MRSA0017 [8] is at least 90%. In addition, the “turbidity in sodium salts of polyatomic anions” value in [10] is listed as “no turbidity increase”. Further, in the series on human PBMCs (peptide 8 μg mL^−1, absence of LPS), the “boost of the level of MCP1 and IL-1RA relative to unmodified IDR1018” value was 2–5 fold. Further, the “ability to modulate chemokine and cytokine expression” value in the series on human PBMCs (peptide 8 μg mL^−1, absence of an LPS stimulant) is “significant increase in the expression of the immune mediators relative to unmodified IDR1018”. Moreover, in the series with IL-1RA (peptide 8 μg mL^−1, 24 h, absence of LPS, mean of three independent experiments), the “level of IL-1RA induced” value came out at 0.8 ng/mL. Moreover, the “IL-1RA induction level with LPS stimulation” value in the series with IL-1RA (peptide 8 μg mL^−1 co-treated with 20 ng mL^−1 P. aeruginosa LPS, 24 h) is reported as “substantially higher expression values”. For the same compound, the “expression of IL-1β with LPS stimulation” value in the series on IL-1β is “significantly suppressed”. Further, the “MCP1 induction level with LPS stimulation” value in the series with MCP-1 was “substantially higher expression values”. The “MICs, range based on the strains tested” value in series [11] is 64 to 128 µg/mL. Also, the “IL-10 induction level with LPS stimulation” value in the series on IL-10 is recorded as “substantially higher expression values”.

For `CC[C@H](C)[C@H](NC(=O)[C@H](CCCNC(=N)N)NC(=O)[C@@H](NC(=O)[C@H](C)NC(=O)[C@@H](NC(=O)[C@@H](NC(=O)[C@H](CC(C)C)NC(=O)[C@H](CCCNC(=N)N)NC(=O)[C@@H](NC(=O)CCOCCOCCOCCOCCOCCOCCO)C(C)C)[C@@H](C)CC)C(C)C)C(C)C)C(=O)N[C@@H](Cc1c[nH]c2ccccc12)C(=O)N[C@@H](CCCNC(=N)N)C(=O)N[C@@H](CCCNC(=N)N)C(N)=O` [PEG6-IDR1018] (X2-VRLIVAVRIWRR-NH2), the MIC against A. baumannii 5015 [1] came to 64 µg/mL (≈ 34.2 µM); in the series with P. aeruginosa PA14 [2], 64 µg/mL (≈ 34.2 µM); against E. coli ATTC489 [3], 64 µg/mL (≈ 34.2 µM); in the series with S. aureus MRSA0017 [4], 32 µg/mL (≈ 17.1 µM). Further, the “MBEC” value in the series on P. aeruginosa PA14 [5] stood at 256 µg/mL; in the series with E. coli ATTC489 [7] it was 128 µg/mL; with S. aureus MRSA0017 [9], 64 µg/mL; in the series on A. baumannii 5015 [12], 128 µg/mL. For the same compound, the “MICs, range based on the strains tested” value in [11] fell in the range of 32 to 64 µg/mL.

Consider VRLIVAVRIWRR-NH2 [IDR1018], for which the MIC with A. baumannii 5015 [1], in the series with P. aeruginosa PA14 [2], in the series on E. coli ATTC489 [3] and with S. aureus MRSA0017 [4] was 16 µg/mL in each case. The “MBEC” value in the series on P. aeruginosa PA14 [5], with E. coli ATTC489 [7] and in the series with A. baumannii 5015 [12] was 16 µg/mL throughout. In [13], the “cytotoxicity to PBMCs” value was “up to 20%”.
